Test results as given in patent publication US10717704B2, “Inhibitors of creatine transport and uses thereof” (Rgenix, Inc., priority 2014, dated 2020).
One block for each compound: values may come before it.

What was measured:
[1] = biological target: T1, creatine transporter (Mus musculus, UniProt Q8VBW1); assay: In vivo creatine transporter inhibition assay (creatine-d3 transport in heart tissue); parameters: species or system C57Bl6 male mice; settings: i.p. 250 mg/kg β-GPA equivalent (1.91 mmol/kg), creatine-d3 1 mg/kg i.p. 7 minutes after drug, hearts after one hour, relative to vehicle control, mean of three hearts
T1 construct: from tissue; host or cells: heart of C57Bl6 male mice (in vivo dosing)
T1 sequence (Q8VBW1 1-635): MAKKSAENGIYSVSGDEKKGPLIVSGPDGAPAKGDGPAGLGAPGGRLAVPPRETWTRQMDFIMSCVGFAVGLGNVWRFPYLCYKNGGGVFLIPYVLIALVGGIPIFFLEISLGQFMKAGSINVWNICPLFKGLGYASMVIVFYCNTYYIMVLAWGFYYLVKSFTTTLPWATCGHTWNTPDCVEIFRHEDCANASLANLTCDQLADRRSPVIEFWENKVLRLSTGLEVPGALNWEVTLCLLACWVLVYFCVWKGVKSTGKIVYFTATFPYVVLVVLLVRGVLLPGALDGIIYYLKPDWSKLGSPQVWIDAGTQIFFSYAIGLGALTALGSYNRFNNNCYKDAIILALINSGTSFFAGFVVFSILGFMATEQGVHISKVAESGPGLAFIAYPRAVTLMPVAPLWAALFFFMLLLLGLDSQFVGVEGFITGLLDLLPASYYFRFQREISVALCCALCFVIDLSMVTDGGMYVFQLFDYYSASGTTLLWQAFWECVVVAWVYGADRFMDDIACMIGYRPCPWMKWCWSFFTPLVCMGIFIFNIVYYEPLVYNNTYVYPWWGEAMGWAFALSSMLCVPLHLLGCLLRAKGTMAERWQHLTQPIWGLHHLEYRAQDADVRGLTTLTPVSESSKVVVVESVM
Method: Soluble compounds were formulated in saline solution (0.9% NaCl). […] Studies were performed on 6-7 week old C57Bl6 male mice, receiving a regular diet (Purina 5001, Research Diet) and on a regular sleep rhythm (12 h night/day schedule). Experiments were performed ˜6 h after exposing to daylight. Mice were weighed and randomly divided into groups of 3 mice per group and injected i.p. with 100-200 μL of dosing solution to deliver 250 mg/kg (50 mg/mL or 381 mM) β-GPA equivalent (i.e. 1.91 mmol/kg) along with a vehicle control. […] Volumes were adjusted based on the weight of the mice to reach a final dose of 1 mg/kg. After one hour, mice were euthanized, hearts were perfused with PBS, removed, snap-frozen in liquid nitrogen, and stored at −80° C. until further processing. Mouse hearts were thawed and weighed into 1.5 mL Eppendorf conical tubes. Typical heart weights range from […]. […] The samples were then placed in a MiniBeadBeater (BioSpec Products, Inc.) for 2 minutes to disrupt the tissue and homogenize the sample. Aliqouts (20 μL) of the homogenized hearts were transferred to a 96-well microtiter plate. […] Supernatant (900 μL) was transferred to 96-well deep well plate for analysis. Calibration standards, blanks, and quality control samples are prepared from control mouse hearts homogenized as noted above. Aliquots of homogenate were then spiked with known quantities of creatine-d3 (CDN Isotopes, Pointe-Claire, Quebec) or solvent, and processed along with the samples as noted above. Analysis was conducted by LC-MS/MS using an Acquity UPLC (Waters Corp., Milford, Mass.)/Triple Quad 5500 (AB Sciex, Framingham, Mass.) system. […] A binary gradient of acetonitrile and 10 mM ammonium acetate was used to elute analytes from the column. The mass spectrometer was operated in positive ion electrospray in Multiple Reaction Monitoring mode for the following mass transitions: Data were collected and processed using Analyst 1.6.2 (AB Sciex, Framingham, Mass.). […] Data was report as μg of creatine-d3 per gram of heart. Mean values and standard deviations were calculated from three heart samples and percent creatine-d3 transport inhibition was reported relative to vehicle control.

[2] = tested on: LvM3b cells with CKB knockdown; assay: Liver metastasis of CKB knockdown LvM3b cells pre-treated with metabolite; assay type: in vivo, mice
Method: (§1) 5×10^5 highly metastatic cancer cells were injected into the portal circulation of immunodeficient mice. One day after inoculation of cancer cells, mice were injected indicated amounts of drug in 300 μL PBS. Treatment was continued daily and metastatic progression was monitored by bioluminescent imaging until the mice were euthanized at which point livers were excised for bioluminescent imaging and gross histology. Where indicated, cancer cells were pre-treated with indicated amounts of compound for 48 hrs before injection into immunodeficient mice.
CKB is known to regulate the reservoir of rapidly mobilized high-energy phosphates in tissues such as the brain and kidneys by catalyzing the transfer of a high-energy phosphate group from phosphocreatine to ADP, yielding ATP and creatine. It was hypothesized that CKB generation of ATP from phosphocreatine might provide colon cancer cells with an energetic advantage during hepatic colonization. […] Metastatic burden was monitored by bioluminescent imaging and mice euthanized 21 days after injection.
Similar studies were done to determine whether creatine and phosphocreatine could rescue the phenotype of seen upon CKB knock-down. […] Liver metastasis was monitored by bioluminescent imaging and mice were euthanized as described above.

[3] = biological target: CKB (Homo sapiens, UniProt P12277); settings: read-out: ki (inhibitor of CKB); cited from earlier work
Chain of CKB (P12277 whole entry): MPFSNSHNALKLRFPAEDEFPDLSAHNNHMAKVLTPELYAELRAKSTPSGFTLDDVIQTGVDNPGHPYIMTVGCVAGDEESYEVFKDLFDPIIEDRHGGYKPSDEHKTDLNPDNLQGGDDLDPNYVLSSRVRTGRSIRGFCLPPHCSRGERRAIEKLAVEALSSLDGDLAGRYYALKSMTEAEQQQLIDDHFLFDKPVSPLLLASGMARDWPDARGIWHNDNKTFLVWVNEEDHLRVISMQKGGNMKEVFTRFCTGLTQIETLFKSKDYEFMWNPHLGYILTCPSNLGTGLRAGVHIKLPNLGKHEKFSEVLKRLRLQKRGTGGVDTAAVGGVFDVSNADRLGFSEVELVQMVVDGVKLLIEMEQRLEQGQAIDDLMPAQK

[4] = tested on: LvM3b cells; assay: Liver metastasis assay, LvM3b colon cancer cells, drug treatment of mice; assay type: in vivo, NOD-SCID mice; settings: for metastatic colonization (bioluminescent measurements of liver metastasis): 5×10^5 LvM3b cells, treated daily for two weeks, intra-peritoneal
Method: One day after inoculation of cancer cells, mice were injected indicated amounts of drug in 300 μL PBS. Treatment was continued daily and metastatic progression was monitored by bioluminescent imaging until the mice were euthanized at which point livers were excised for bioluminescent imaging and gross histology. Where indicated, cancer cells were pre-treated with indicated amounts of compound for 48 hrs before injection into immunodeficient mice. […] The treatment regime started one day after inoculation of tumor cells and continued until the mice were euthanized. […] Treatment regime were as that for cyclocreatine treatment. Finally, assays were carried out to determine the impact of small-molecule inhibition of CKB and restriction of creatine availability on colon cancer metastasis. Cyclocreatine, which resembles phosphocreatine, is a transition-state analog for creatine kinases. […] The mice were then euthanized and livers excised for ex vivo imaging at the end of the treatment. […] Similar assays were carried out using a creatine transporter inhibitor beta-guanidinopropionic acid (β-GPA). […] In this example, assays were carried out to confirm the therapeutic potential of targeting the creatine transporter channel SLC6a8 by administering the small molecule β-GPA, which is an inhibitor of SLC6a8. […] To confirm this therapeutic effect, mice injected with LvM3b colon cancer cells we treated with either β-GPA or control vehicle (PBS) via intra-peritoneal injection daily for three weeks (FIG. 2). The mice were euthanized at three weeks and liver extracted for bioluminescent imaging and gross histology.

[5] = tested on: PANC1 pancreatic cancer cells; assay: Survival of disseminated PANC1 cells in vivo after β-GPA pre-treatment; parameters: species or system immunodeficient mice
Method: as §1, with “One” for “5×10^5 highly metastatic cancer cells were injected into the portal circulation of immunodeficient mice. One”

Compound: Nc1ncnc2c1ncn2[C@@H]1O[C@H](COP(=O)(O)OP(=O)(O)OP(=O)(O)O)[C@@H](O)[C@H]1O [ATP]
enhancement of suppressed metastasis phenotype in cells depleted of CKB ([2]; LvM3b with CKB knockdown pre-treated with 100 uM ATP, 21 days): more than 10 folds

Compound: C[C@@H](CC(=O)O)NC(=N)N [Compound 220, (3S)-3-carbamimidamidobutanoic acid]
% Inhibition of Creatine-d3 Transport [1]: 1.4%

Compound: N=C(N)NC[C@H](N)C(=O)O [Compound 125, (2S)-2-amino-3-carbamimidamidopropanoic acid]
% Inhibition of Creatine-d3 Transport [1]: 4.5%

Compound: CN(CC(=O)O)C(=N)N [creatine]
rescue of metastasis suppression upon CKB knockdown ([2]; LvM3b cells with CKB knockdown pre-treated with 10 uM, day 21): rescued metastasis suppression

Compound: NC1=NCCN1CC(=O)O [cyclocreatine]
Ki [3]: 5 mM | metastatic colonization (bioluminescent measurements of liver metastasis) [4]: significantly reduced metastatic colonization

Compound: N=C(N)NCCC(=O)O [β-GPA, beta-guanidinopropionic acid]
average photon flux ratio (bioluminescence imaging) ([5]; 5×10^5 PANC1 cells pre-treated 48 hours with 10 mM, day 1 signal normalized to day zero, control group about 2.7): ~1.6 | tumor burden of pancreatic cancer cells in vivo ([5]; PANC1 cells pre-treated 48 hours with 10 mM, one day after injection): significant reduction in the tumor burden | metastatic colonization (bioluminescent measurements of liver metastasis) [4]: significantly reduced metastatic colonization | colon cancer metastasis to the liver ([4]; LvM3b cells, daily treatment for three weeks, bioluminescent imaging and gross anatomical examination): significant reduction in colon cancer metastasis to the liver | average photon flux ratio (bioluminescence imaging) ([4]; LvM3b cells, β-GPA intra-peritoneal daily for three weeks, control group about 800): ~100

Compound: N=C(N)NCCC(=O)O [28 (β-GPA)]
inhibition at 250 mg/kg ([1]; mouse, ip): 73.4%

Compound: C[C@H](CC(=O)O)NC(=N)N [Compound 219, (3R)-3-carbamimidamidobutanoic acid]
% Inhibition of Creatine-d3 Transport [1]: 79.0%

More lines, now with the values ahead:

% Inhibition of Creatine-d3 Transport [1]: 71.8%
Compound: N=C(N)N1CC(C(=O)O)C1 [Compound 258, 1-carbamimidoylazetidine-3-carboxylic acid]

% Inhibition of Creatine-d3 Transport [1]: 24.7%
Compound: N=C(N)NC(CC(=O)O)C(F)(F)F (centres unmarked) [Compound 261, 3-guanidino-4,4,4-trifluorobutanoic acid]

% Inhibition of Creatine-d3 Transport [1]: 39.1%
Compound: N=C(N)N1CCC(C(=O)O)C1 (centres unmarked) [Compound 376, 1-carbamimidoylpyrrolidine-3-carboxylic acid]

% Inhibition of Creatine-d3 Transport [1]: 11.1%
Compound: CCC(CC(=O)O)NC(=N)N (centres unmarked) [Compound 358, 3-carbamimidamidopentanoic acid]
